Measured values: patent publication US12492173B2, “Herbicidal substituted N-tetrazolyl aryl carboxamides” (Bayer Aktiengesellschaft, priority 2019, dated 2025)

Experiments:
Type in all cases: in vivo
Matricaria inodora = assay: Pre-emergence herbicidal action, MATIN; settings: dosage 320 g/ha, scored visually after 3 weeks vs untreated controls (100% = plants have died)
Method in brief: (§1)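 Herbicidal activity is expressed in percent, scored by eye after a 3-week greenhouse period, with 0% matching untreated plants and 100% meaning death. Compounds, as wettable powders or emulsion concentrates, are applied pre-emergence to the covering soil.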

Polygonum convolvulus = assay: Pre-emergence herbicidal action, POLCO; settings: dosage 320 g/ha, scored visually after 3 weeks vs untreated controls (100% = plants have died)
Method in brief: as §1

Abutilon theophrasti = assay: Post-emergence herbicidal action, ABUTH; set-up: key: % herbicidal action vs untreated; 100 = plants died, 0 = like control
Method in brief: (§2)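 Treatment: post-emergence spray, one-leaf stage. Medium: sandy loam, greenhouse. Carrier: 600–800 l/ha water, 0.2% wetting agent. Read-out: visual % activity at ~3 weeks, untreated plants as reference.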

Amaranthus retroflexus = assay: Post-emergence herbicidal action, AMARE; set-up: key: % herbicidal action vs untreated; 100 = plants died, 0 = like control
Method in brief: as §2

Pharbitis purpurea = assay: Post-emergence herbicidal action, PHBPU
Method in brief: as §2

Stellaria media = assay: Post-emergence herbicidal action, STEME; set-up: key: % herbicidal action vs untreated; 100 = plants died, 0 = like control
Method in brief: as §2

Viola tricolor = assay: Post-emergence herbicidal action, VIOTR; set-up: key: % herbicidal action vs untreated; 100 = plants died, 0 = like control
Method in brief: as §2

| SMILES | herbicidal activity MATIN (Matricaria inodora) [%] | herbicidal activity POLCO (Polygonum convolvulus) [%] | herbicidal action ABUTH (Abutilon theophrasti; Dosage 80 g/ha) | herbicidal action AMARE (Amaranthus retroflexus; Dosage 80 g/ha) | herbicidal action PHBPU (Pharbitis purpurea; Dosage 80 g/ha) | herbicidal action STEME (Stellaria media; Dosage 80 g/ha) | herbicidal action VIOTR (Viola tricolor; Dosage 80 g/ha) | herbicidal action ABUTH (Abutilon theophrasti; post-emergence, dosage 80 g/ha) [%] | herbicidal action AMARE (Amaranthus retroflexus; post-emergence, dosage 80 g/ha) [%] | herbicidal action PHBPU (Pharbitis purpurea; post-emergence, dosage 80 g/ha) [%] | herbicidal action STEME (Stellaria media; post-emergence, dosage 80 g/ha) [%] | herbicidal action VIOTR (Viola tricolor; post-emergence, dosage 80 g/ha) [%] |
| --- | --- | --- | --- | --- | --- | --- | --- | --- | --- | --- | --- | --- |
| Cn1nnnc1NC(=O)c1ccc(C(F)(F)F)c(CS(C)(=O)=O)c1Br [Example 1-382, 2-bromo-3-[(methylsulfonyl)methyl]-N-(1-methyl-1H-tetrazol-5-yl)-4-(trifluoromethyl)benzamide] | 100 | 90 | 100 | 100 | 100 | 100 | 100 |  |  |  |  |  |
| Cn1nnnc1NC(=O)c1ccc(Cl)c(CS(C)(=O)=O)c1Cl [Example 1-561] | 90 | 100 | 90 | 100 | 100 | 100 | 100 |  |  |  |  |  |
| CCn1nnnc1NC(=O)c1ccc(C(F)F)c(CSC)c1C [Example 2-107] | 100 | 80 | 90 | 90 | 90 | 100 | 100 |  |  |  |  |  |
| CCn1nnnc1NC(=O)c1ccc(C(F)(F)F)c(C[S+](C)[O-])c1OC (stereo not shown) [Example 2-135] | 100 | 90 | 100 | 100 | 100 | 100 | 100 |  |  |  |  |  |
| CCn1nnnc1NC(=O)c1ccc(C(F)(F)F)c(CS(C)(=O)=O)c1OC [Example 2-136] | 100 | 100 | 100 | 100 | 90 | 100 | 100 |  |  |  |  |  |
| CCn1nnnc1NC(=O)c1ccc(C(F)(F)F)c(CSC)c1SC [Example 2-161] | 100 | 90 |  |  |  |  |  | 90 | 100 | 90 | 100 | 100 |
| CCn1nnnc1NC(=O)c1ccc(C(F)(F)F)c(CS(C)(=O)=O)c1SC [Example 2-163] | 100 | 100 | 100 | 100 | 90 | 100 | 100 |  |  |  |  |  |
| CCn1nnnc1NC(=O)c1ccc(C(F)(F)F)c(CSC)c1Br [Example 2-380] | 100 | 90 |  |  |  |  |  | 80 | 80 | 90 | 100 | 100 |
| CCn1nnnc1NC(=O)c1ccc(C(F)(F)F)c(CS(C)(=O)=O)c1Br [Example 2-382] | 100 | 90 | 100 | 90 | 100 | 100 | 100 |  |  |  |  |  |
| CCSCc1c(C(F)(F)F)ccc(C(=O)Nc2nnnn2CC)c1Br [Example 2-383] | 100 | 90 |  |  |  |  |  | 100 | 100 | 90 | 90 | 100 |
| CCCn1nnnc1NC(=O)c1ccc(C(F)F)c(CSC)c1C [Example 3-107] | 100 | 90 | 80 | 90 | 80 | 80 | 100 |  |  |  |  |  |
| CCCn1nnnc1NC(=O)c1ccc(C(F)(F)F)c(CSC)c1OC [Example 3-134] | 100 | 80 | 100 | 100 | 100 | 100 | 100 |  |  |  |  |  |
| CCCn1nnnc1NC(=O)c1ccc(C(F)(F)F)c(CS(C)(=O)=O)c1OC [Example 3-136] | 100 | 80 | 100 | 100 | 90 | 100 | 100 |  |  |  |  |  |
| CCCn1nnnc1NC(=O)c1ccc(C(F)(F)F)c(CSC)c1Cl [Example 3-296] | 100 | 90 | 100 | 100 | 90 | 100 | 100 |  |  |  |  |  |
| CCCn1nnnc1NC(=O)c1ccc(C(F)(F)F)c(CSCC)c1Cl [Example 3-299] | 100 | 90 | 90 | 90 | 90 | 100 | 100 |  |  |  |  |  |
| CCCn1nnnc1NC(=O)c1ccc(C(F)F)c(CSC)c1Cl [Example 3-320] | 100 | 90 | 100 | 80 | 90 | 100 | 100 |  |  |  |  |  |
| CCCn1nnnc1NC(=O)c1ccc(C(F)(F)F)c(C[S+](C)[O-])c1Br (stereo not shown) [Example 3-381] | 100 | 80 |  |  |  |  |  | 90 | 90 | 100 | 100 | 100 |
| CCCn1nnnc1NC(=O)c1ccc(C(F)(F)F)c(CSCC)c1Br [Example 3-383] | 100 | 90 | 90 | 90 | 90 | 100 | 100 |  |  |  |  |  |
| CCCn1nnnc1NC(=O)c1ccc(C(F)(F)F)c(CS(=O)(=O)CC)c1Br [Example 3-385] | 100 | 80 | 100 | 90 | 90 | 100 | 100 |  |  |  |  |  |
